Data from ChEMBL document CHEMBL4028801, “A multifactorial approach to hepatobiliary transporter assessment enables improved therapeutic compound development” (Toxicol Sci, 2013).
Where a name gives a salt, the structure may show the parent alone.

Key:
Bile salt export pump = Bile salt export pump (Homo sapiens, UniProt O95342); test: Inhibition of human BSEP overexpressed in Sf9 cell membrane vesicles assessed as uptake of [3H]-taurocholate in presence of ATP measured after 15 to 20 mins by membrane vesicle transport assay; assay type: ADME, cell-based
Bile salt export pump, sequence (O95342 whole entry): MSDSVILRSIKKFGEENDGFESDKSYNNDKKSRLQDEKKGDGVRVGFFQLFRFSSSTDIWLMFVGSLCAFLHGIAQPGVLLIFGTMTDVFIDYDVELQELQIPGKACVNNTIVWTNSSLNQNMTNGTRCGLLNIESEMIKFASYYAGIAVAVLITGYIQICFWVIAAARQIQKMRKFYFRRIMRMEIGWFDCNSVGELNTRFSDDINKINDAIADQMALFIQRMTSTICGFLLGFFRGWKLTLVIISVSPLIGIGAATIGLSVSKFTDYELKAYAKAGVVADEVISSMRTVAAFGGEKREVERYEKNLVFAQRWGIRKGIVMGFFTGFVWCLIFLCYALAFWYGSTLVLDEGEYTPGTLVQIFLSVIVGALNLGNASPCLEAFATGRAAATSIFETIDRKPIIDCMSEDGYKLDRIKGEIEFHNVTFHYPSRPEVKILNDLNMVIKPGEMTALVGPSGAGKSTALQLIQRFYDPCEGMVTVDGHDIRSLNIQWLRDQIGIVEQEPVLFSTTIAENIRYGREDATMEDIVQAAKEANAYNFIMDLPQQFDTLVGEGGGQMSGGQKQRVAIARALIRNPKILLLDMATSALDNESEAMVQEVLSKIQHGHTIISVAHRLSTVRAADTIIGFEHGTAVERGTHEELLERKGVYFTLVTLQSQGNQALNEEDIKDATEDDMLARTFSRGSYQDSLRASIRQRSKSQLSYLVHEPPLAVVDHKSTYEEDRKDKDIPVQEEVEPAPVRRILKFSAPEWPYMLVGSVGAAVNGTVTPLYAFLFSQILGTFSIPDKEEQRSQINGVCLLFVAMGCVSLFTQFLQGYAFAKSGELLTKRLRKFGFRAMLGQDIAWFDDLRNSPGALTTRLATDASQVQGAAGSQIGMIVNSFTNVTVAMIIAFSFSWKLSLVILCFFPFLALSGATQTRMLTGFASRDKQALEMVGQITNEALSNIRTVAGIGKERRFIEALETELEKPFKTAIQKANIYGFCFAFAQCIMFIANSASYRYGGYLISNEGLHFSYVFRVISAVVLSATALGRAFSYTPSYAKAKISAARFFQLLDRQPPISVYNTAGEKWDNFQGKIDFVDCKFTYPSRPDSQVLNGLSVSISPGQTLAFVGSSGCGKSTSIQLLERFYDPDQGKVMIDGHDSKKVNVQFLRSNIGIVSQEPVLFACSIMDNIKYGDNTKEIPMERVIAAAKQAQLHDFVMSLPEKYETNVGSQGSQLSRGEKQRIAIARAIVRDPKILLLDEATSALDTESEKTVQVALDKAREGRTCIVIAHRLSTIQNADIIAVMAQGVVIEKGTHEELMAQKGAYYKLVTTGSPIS

[1] = biological target: ATP-binding cassette sub-family C member 2 (Homo sapiens, UniProt Q92887); test: Inhibition of human MRP2 overexpressed in Sf9 cell membrane vesicles assessed as uptake of [3H]-estradiol-17beta-D-glucuronide in presence of ATP and GSH measured after 20 mins by membrane vesicle transport assay
ATP-binding cassette sub-family C member 2, sequence (Q92887 whole entry): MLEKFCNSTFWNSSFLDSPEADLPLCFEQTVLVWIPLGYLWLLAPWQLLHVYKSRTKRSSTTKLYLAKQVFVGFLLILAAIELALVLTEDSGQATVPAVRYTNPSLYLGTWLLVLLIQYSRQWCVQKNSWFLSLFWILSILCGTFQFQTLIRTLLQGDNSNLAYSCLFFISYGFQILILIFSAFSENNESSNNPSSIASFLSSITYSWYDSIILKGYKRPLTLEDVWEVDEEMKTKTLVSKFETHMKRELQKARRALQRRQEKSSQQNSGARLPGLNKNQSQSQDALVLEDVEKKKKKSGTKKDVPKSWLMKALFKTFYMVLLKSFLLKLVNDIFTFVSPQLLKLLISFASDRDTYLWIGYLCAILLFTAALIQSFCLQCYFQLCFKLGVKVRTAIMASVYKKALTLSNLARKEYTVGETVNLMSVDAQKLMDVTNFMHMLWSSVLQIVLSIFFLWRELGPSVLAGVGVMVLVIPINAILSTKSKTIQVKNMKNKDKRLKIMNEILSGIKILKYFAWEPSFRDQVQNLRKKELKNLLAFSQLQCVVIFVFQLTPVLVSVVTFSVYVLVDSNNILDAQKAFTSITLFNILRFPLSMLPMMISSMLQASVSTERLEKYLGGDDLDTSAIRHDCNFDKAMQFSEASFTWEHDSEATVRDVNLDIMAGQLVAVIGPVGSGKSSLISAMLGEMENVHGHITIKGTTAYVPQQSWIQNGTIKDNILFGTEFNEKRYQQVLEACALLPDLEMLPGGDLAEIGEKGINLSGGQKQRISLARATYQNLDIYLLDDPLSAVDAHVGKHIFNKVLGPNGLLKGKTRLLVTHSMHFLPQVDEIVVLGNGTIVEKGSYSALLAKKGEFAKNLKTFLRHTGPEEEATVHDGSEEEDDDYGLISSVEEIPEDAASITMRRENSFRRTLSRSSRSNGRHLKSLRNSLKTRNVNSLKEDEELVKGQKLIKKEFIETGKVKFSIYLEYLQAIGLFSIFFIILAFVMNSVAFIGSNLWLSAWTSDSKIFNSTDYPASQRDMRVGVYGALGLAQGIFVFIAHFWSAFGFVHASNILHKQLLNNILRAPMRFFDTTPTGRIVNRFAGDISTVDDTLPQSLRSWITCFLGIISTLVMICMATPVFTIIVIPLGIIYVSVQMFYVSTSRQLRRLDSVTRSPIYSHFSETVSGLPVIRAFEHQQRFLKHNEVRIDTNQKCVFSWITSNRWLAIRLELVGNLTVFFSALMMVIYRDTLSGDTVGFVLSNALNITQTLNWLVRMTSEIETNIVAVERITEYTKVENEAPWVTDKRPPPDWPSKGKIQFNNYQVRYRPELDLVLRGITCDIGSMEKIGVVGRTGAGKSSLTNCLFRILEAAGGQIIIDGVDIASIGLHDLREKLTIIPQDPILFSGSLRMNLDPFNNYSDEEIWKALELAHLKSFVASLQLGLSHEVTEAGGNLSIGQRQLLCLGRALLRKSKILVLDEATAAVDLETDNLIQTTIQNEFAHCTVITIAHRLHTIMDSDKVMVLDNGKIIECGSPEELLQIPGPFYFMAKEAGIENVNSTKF

[2] = biological target: ATP-binding cassette sub-family C member 3 (Homo sapiens, UniProt O15438); test: Inhibition of human MRP3 overexpressed in Sf9 insect cell membrane vesicles assessed as uptake of [3H]-estradiol-17beta-D-glucuronide in presence of ATP and GSH measured after 10 mins by membrane vesicle transport assay; assay type: ADME, cell-based
ATP-binding cassette sub-family C member 3, sequence (O15438 whole entry): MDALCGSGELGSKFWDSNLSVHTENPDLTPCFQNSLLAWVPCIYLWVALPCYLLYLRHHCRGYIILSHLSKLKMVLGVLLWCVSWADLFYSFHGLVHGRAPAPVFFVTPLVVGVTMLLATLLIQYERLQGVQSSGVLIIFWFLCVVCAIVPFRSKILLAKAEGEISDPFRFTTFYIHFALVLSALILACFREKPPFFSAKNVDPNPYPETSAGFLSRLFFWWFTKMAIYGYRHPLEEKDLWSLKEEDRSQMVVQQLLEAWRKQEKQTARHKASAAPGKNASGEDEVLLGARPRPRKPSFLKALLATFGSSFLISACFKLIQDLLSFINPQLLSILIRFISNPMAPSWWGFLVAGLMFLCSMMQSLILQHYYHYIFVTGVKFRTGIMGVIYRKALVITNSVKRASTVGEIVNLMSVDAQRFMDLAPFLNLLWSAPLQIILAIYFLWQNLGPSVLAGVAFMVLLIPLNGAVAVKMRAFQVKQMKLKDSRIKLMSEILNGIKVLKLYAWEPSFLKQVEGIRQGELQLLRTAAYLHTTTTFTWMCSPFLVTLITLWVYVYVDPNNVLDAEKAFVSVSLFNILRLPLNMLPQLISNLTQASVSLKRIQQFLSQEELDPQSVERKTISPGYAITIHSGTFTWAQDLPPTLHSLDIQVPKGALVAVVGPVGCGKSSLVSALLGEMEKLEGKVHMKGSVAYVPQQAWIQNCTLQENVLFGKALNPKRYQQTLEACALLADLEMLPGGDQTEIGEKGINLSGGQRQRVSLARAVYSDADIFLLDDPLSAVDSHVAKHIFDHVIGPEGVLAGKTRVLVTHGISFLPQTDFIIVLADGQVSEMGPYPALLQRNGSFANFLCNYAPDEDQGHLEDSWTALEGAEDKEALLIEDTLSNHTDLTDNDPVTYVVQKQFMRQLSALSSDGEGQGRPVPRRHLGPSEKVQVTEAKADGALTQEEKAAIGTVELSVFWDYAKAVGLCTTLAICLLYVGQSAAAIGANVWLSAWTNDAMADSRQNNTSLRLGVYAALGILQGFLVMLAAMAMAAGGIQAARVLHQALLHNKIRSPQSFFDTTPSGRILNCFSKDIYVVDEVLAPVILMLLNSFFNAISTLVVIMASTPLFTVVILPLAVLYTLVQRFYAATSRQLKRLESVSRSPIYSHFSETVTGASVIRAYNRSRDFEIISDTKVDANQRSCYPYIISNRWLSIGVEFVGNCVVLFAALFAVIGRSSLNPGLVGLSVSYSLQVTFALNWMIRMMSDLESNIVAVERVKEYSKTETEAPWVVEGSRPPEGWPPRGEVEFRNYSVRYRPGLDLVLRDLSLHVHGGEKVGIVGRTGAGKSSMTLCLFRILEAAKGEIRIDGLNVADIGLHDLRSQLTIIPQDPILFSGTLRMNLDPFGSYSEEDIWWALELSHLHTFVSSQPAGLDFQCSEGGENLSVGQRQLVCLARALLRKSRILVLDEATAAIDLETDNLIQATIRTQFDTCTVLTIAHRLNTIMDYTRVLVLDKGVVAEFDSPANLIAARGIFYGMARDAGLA

[3] = biological target: T1, ATP-binding cassette sub-family C member 4 (Homo sapiens, UniProt O15439); test: Inhibition of human MRP4 overexpressed in Sf9 cell membrane vesicles assessed as uptake of [3H]-estradiol-17beta-D-glucuronide in presence of ATP and GSH measured after 20 mins by membrane vesicle transport assay; assay type: ADME, cell-based
T1 sequence (O15439 whole entry): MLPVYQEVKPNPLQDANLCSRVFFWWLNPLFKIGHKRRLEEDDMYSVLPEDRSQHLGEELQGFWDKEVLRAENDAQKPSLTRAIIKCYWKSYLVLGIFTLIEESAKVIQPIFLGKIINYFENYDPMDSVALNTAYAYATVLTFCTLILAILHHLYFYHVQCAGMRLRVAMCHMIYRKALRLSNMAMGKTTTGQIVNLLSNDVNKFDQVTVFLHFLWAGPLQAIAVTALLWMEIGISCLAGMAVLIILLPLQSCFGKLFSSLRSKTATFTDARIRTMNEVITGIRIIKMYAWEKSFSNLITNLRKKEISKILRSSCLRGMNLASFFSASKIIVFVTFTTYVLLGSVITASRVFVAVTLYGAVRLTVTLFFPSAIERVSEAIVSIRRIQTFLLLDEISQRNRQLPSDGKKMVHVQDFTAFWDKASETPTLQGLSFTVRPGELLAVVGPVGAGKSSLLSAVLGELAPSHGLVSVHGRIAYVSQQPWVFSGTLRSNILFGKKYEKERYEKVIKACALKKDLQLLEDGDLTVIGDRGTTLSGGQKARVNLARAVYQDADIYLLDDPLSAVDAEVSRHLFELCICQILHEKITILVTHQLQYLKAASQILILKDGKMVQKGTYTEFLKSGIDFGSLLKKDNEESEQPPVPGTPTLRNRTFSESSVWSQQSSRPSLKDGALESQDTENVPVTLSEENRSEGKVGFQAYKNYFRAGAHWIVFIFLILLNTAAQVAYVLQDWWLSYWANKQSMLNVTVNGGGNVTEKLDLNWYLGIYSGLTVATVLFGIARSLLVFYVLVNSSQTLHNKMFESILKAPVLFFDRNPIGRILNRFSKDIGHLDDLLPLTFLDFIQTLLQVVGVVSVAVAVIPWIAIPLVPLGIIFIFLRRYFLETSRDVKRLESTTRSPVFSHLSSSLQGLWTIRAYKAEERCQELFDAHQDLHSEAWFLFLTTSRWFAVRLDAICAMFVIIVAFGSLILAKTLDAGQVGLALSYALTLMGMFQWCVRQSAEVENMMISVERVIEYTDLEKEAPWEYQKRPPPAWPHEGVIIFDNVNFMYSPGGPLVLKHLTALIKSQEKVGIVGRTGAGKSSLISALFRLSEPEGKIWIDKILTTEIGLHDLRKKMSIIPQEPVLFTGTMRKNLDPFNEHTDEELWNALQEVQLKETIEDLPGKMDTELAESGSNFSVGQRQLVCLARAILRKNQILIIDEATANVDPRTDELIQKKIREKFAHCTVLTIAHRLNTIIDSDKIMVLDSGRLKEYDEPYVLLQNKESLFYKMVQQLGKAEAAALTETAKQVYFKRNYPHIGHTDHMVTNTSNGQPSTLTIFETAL

| Compound | IC50 (Bile salt export pump) | IC50 [1] | IC50 [2] | IC50 [3] |
| --- | --- | --- | --- | --- |
| COc1cccc2c1C(=O)c1c(O)c3c(c(O)c1C2=O)C[C@@](O)(C(=O)CO)C[C@@H]3O[C@H]1C[C@H](N)[C@@H](O)[C@H](C)O1 [EPIRUBICIN HYDROCHLORIDE] | > 133 µM | > 133 µM | > 133 µM | > 133 µM |
| CC(C)C(=O)Nc1ccc([N+](=O)[O-])c(C(F)(F)F)c1 [FLUTAMIDE] | > 133 µM | > 133 µM | > 133 µM | > 133 µM |
| Nc1c(CC(=O)O)cccc1C(=O)c1ccc(Br)cc1 [BROMFENAC] | > 133 µM | – | > 133 µM | > 133 µM |
| BIVALIRUDIN | > 133 µM | > 133 µM | – | > 133 µM |
| CCOC(=O)[C@H](CCc1ccccc1)N[C@@H](C)C(=O)N1Cc2ccccc2C[C@H]1C(=O)O | 94 µM | – | > 133 µM | > 133 µM |
| Cc1cc(C2CCCCC2)n(O)c(=O)c1 [CICLOPIROX] | > 133 µM | – | > 133 µM | > 133 µM |
| O=c1n(CCCN2CCN(c3cccc(Cl)c3)CC2)nc2ccccn12 [TRAZODONE] | > 133 µM | – | > 133 µM | > 133 µM |
| CC(=O)Nc1ccc(S(=O)(=O)Nc2ccc([N+](=O)[O-])cc2)cc1 | > 133 µM | – | > 133 µM | > 133 µM |
| CCCc1nn(C)c2c(=O)[nH]c(-c3cc(S(=O)(=O)N4CCN(C)CC4)ccc3OCC)nc12 [SILDENAFIL CITRATE] | 132 µM | > 133 µM | > 133 µM | – |
| CCOC(=O)C1=C(C)NC(C)=C(C(=O)OC)C1c1cccc([N+](=O)[O-])c1 (configuration not stated) [NITRENDIPINE] | 22.5 µM | – | > 133 µM | > 133 µM |
| N#C/C(=C1/SCC(c2ccccc2Cl)S1)n1ccnc1 (configuration not stated) [LANOCONAZOLE] | 9.65 µM | – | > 133 µM | > 133 µM |
| Cc1ccc(C)c(OCCCC(C)(C)C(=O)O)c1 [GEMFIBROZIL] | > 133 µM | – | > 133 µM | > 133 µM |
| CCOC(=O)[C@H](CCc1ccccc1)N[C@@H](C)C(=O)N1[C@H](C(=O)O)C[C@H]2CCCC[C@@H]21 [TRANDOLAPRIL] | > 133 µM | – | > 133 µM | > 133 µM |
| CCCCCC[C@H]1C(=O)O[C@H](C)[C@H](NC(=O)c2cccc(NC=O)c2O)C(=O)O[C@@H](C)[C@@H]1OC(=O)CC(C)C [ANTIMYCIN A] | 59.6 µM | – | > 133 µM | > 133 µM |
| CCCCNc1cc(C(=O)O)cc(S(N)(=O)=O)c1Oc1ccccc1 [BUMETANIDE] | > 133 µM | – | > 133 µM | > 133 µM |
| Cc1cnc(NC(=O)C2=C(O)c3ccccc3S(=O)(=O)N2C)s1 [MELOXICAM] | 77.5 µM | – | > 133 µM | > 133 µM |
| COc1cc2nc(N3CCN(C(=O)c4ccco4)CC3)nc(N)c2cc1OC [PRAZOSIN] | > 133 µM | – | > 133 µM | 12.5 µM |
| CC(C)(Oc1ccc(C2CC2(Cl)Cl)cc1)C(=O)O (configuration not stated) [CIPROFIBRATE] | > 133 µM | – | > 133 µM | > 133 µM |
| O=c1n(CCCN2CCN(c3cccc(Cl)c3)CC2)nc2ccccn12 [TRAZODONE HYDROCHLORIDE] | > 133 µM | – | > 133 µM | > 133 µM |
| C[C@](N)(Cc1ccc(O)c(O)c1)C(=O)O | > 133 µM | – | 41.2 µM | 8.08 µM |
